Data: PMC6437697 (Journal of Medicinal Chemistry, 2019)

How the values were obtained:
Assay in all cases: KINOMEscan
Type in all cases: binding
Details in all cases: read-out: % control activity remaining
PIK3C2G = molecular target: T1, PIK3C2G (Homo sapiens, UniProt O75747)
T1 construct: purchased Eurofins DiscoverX KINOMEscan
T1 sequence (O75747 1-1486): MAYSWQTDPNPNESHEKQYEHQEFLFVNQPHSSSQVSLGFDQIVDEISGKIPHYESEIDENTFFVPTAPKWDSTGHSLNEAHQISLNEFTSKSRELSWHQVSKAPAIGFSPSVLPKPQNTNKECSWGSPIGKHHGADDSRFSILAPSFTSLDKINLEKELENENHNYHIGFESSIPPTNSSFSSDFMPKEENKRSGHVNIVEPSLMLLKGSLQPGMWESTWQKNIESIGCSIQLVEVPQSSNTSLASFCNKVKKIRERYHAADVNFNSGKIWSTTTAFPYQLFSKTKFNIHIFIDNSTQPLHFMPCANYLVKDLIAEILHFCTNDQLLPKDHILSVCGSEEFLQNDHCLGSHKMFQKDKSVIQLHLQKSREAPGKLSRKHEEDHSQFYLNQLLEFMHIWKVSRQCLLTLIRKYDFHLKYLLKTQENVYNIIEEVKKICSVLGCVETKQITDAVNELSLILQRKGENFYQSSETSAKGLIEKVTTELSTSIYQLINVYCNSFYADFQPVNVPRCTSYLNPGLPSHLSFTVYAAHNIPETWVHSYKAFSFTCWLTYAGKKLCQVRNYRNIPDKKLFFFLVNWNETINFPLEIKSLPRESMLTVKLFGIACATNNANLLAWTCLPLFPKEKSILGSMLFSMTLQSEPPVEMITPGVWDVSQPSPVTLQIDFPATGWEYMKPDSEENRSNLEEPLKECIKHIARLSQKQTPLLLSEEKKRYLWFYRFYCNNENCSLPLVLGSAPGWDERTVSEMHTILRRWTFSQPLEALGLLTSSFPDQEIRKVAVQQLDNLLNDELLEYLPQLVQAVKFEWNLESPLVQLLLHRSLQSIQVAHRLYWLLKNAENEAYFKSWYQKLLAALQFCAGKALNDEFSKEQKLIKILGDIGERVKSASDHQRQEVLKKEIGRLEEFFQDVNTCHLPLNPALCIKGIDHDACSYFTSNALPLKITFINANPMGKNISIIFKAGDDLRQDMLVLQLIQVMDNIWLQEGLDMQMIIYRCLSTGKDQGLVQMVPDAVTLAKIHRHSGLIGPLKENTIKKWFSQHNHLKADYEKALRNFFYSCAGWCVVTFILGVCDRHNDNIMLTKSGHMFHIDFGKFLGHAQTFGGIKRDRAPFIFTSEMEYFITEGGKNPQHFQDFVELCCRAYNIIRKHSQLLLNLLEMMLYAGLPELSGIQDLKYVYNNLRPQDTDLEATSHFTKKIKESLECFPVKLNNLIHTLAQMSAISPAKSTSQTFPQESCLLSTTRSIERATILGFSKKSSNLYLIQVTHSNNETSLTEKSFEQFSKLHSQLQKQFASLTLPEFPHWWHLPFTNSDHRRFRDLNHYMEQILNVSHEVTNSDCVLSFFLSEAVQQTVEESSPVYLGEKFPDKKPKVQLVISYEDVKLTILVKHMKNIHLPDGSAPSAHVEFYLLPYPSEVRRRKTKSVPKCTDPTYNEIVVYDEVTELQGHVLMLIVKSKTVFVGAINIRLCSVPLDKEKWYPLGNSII

PRKD2 = molecular target: T2, PRKD2 (Homo sapiens, UniProt Q9BZL6)
T2 construct: purchased Eurofins DiscoverX KINOMEscan
T2 sequence (Q9BZL6 1-878): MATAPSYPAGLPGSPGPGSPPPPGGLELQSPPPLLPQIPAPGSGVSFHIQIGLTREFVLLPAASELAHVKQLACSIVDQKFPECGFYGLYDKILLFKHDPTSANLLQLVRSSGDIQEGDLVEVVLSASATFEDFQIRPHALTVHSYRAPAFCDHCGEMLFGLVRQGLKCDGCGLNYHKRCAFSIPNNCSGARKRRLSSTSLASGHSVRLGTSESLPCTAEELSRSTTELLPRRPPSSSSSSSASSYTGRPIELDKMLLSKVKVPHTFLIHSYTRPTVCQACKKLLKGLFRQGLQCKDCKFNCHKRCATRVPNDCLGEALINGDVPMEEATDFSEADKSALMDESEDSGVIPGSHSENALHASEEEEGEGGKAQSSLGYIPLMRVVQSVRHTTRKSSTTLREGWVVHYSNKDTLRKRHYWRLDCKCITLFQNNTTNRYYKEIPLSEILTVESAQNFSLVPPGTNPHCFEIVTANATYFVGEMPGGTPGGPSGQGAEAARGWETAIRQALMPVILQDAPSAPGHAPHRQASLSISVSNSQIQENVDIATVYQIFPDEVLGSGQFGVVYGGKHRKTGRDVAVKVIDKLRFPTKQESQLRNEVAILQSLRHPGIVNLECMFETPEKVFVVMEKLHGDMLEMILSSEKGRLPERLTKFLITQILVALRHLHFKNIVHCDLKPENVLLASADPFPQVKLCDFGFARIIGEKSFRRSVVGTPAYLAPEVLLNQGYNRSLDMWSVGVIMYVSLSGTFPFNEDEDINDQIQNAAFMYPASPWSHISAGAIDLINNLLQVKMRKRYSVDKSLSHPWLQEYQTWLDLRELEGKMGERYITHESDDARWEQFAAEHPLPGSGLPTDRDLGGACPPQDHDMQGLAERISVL

FGFR3 = molecular target: T3, FGFR3 (Homo sapiens, UniProt P22607)
T3 construct: purchased Eurofins DiscoverX KINOMEscan
T3 sequence (P22607 23-806): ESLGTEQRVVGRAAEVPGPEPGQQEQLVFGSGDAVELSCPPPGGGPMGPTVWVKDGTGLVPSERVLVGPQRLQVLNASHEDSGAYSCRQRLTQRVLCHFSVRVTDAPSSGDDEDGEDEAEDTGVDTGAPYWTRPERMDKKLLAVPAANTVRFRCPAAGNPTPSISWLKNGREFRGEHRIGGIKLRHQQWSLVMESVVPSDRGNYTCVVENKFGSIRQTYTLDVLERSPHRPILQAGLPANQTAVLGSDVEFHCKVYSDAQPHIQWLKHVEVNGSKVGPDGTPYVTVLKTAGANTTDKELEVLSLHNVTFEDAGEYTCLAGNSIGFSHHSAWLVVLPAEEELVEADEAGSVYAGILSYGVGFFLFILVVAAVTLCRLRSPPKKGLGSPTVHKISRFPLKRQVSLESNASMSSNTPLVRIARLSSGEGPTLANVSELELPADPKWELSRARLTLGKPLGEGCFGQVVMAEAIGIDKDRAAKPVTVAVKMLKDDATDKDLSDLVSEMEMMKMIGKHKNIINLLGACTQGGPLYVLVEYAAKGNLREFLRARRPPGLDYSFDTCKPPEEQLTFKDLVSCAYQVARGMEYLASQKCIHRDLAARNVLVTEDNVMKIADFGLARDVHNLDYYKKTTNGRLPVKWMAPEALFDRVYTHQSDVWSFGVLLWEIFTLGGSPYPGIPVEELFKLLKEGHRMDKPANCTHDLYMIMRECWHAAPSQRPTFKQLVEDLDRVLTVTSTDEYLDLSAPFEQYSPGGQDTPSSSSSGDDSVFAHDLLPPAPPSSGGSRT

Compound | remaining binding at 1 µM (PIK3C2G) [%] | remaining binding at 1 µM (PRKD2) [%] | remaining binding at 1 µM (FGFR3) [%]
Clc1cc(NCC2CC2)c2ncc(-c3ccc4[nH]ncc4c3)n2n1 [compound 2, 6-Chloro-N-(cyclopropylmethyl)-3-(1H-indazol-5-yl)imidazo[1,2-b]pyridazin-8-amine] | 91 | 100 | 90
O=C(CN1CCOCC1)N[C@H]1CC[C@H](Nc2cc(Cl)nn3c(-c4ccc5[nH]ncc5c4)cnc23)CC1 [compound 26] | 80 | 100 | 94
CN1CCC(CNc2cc(Cl)nn3c(-c4cc5nc(Nc6ccccc6)[nH]c5cc4F)cnc23)CC1 [compound 31, 6-Chloro-3-(6-fluoro-2-(phenylamino)-1H-benzo[d]imidazol-5-yl)-N-((1-methylpiperidin-4-yl)methyl)imidazo[1,2-b]pyridazin-8-amine] | 82 | 93 | 91
